Data on six molecules can be found in ChEMBL document CHEMBL1147264, “Tricholomalides A-C, new neurotrophic diterpenes from the mushroom Tricholoma sp” (J Nat Prod, 2003).

Calls of active or inactive are those of the source. The calls are words filed in the database; no cut-off is given here.

The subject of experiment [1] is PC-12. The experiment is described as follows: Induction of neurite outgrowth in rat PC12 cells at 100 uM after 2 days by phase-contrast microscopy. The format is functional, cell-based.
The next experiment relates to HeLa. Description: Cytotoxicity against human HeLa cells at 50 ug/mL after 3 days by MTT assay. The format is functional, cell-based. In general terms: Tetrazolium assays rely on reduction of a dye to a coloured formazan, in cell work by metabolically active cells.
Experiment [2] relates to PC-12. Description: Induction of neurite outgrowth in rat PC12 cells. It counts as functional, cell-based.
Experiment [3] can be described thus: Inhibition of Na(+)/K(+) ATPase.

Turning to `C=C1CO[C@H]2[C@@H]3C(=O)C[C@@H](C(C)C)[C@]3(C)C[C@H]3OC(=O)C[C@@]3(C)[C@@]12O`, in the experiment with PC-12 [1], the result was Active. In addition, in the experiment on HeLa, the outcome was inactive.
On the same counts, the results for `C=C(CO)[C@@]1(O)C=C2C(=O)C[C@@H](C(C)C)[C@]2(C)C[C@H]2OC(=O)C[C@]21C` are “Active” and “inactive”.
`CC(C)C1=C2[C@H]3CC=C(C=O)CC(=O)[C@]3(C)CC[C@@]2(C(=O)O)CC1`: the outcome in the experiment with PC-12 [2] was inactive.
As to `C=C(CO)[C@]12C=C3C(=O)C[C@@H](C(C)C)[C@]3(C)C[C@@H](O)[C@@]1(C)CC(=O)O2`, in the experiment with PC-12 [1], the result was Active. Also, the result with HeLa was inactive.
In the case of `CO[C@H]1[C@H]2[C@@H](O)O[C@@H]1[C@]1(C)CC[C@@]3(C(=O)O)CCC(C(C)C)=C3[C@H]1C[C@H]2OC`, the outcome in the experiment on PC-12 [2] was inactive.
Turning to `O=C(O)/C(=C1/OCO/C1=C(/C(=O)O)c1ccccc1)c1ccccc1`, in experiment [3], the outcome was Active.
